27 compounds from PubChem BioAssay (NCI) can be followed below.

What all share (experiment): DTP human tumour cell line panel, 48 h
Experiment [1] relates to MDA-MB-435.
Experiment [2] concerns NCI/ADR-RES ovarian.
Experiment [3] concerns DLD-1 colon.
The test system of experiment [4] is LXFL 529 NSCLC.
In experiment [5] the test system is SNB-78 CNS.
Experiment [6] deals with MDA-N.
Experiment [7] relates to KM20L2 colon.

By GI50 is commonly meant the concentration at which growth is held to half of that of the control. In general, TGI refers to the concentration giving total growth inhibition. A high value points to lower sensitivity of the cells.

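Interpolation was linear, between the two tested concentrations surrounding the appropriate level; five concentrations were tested over 48 hours in 96-well plates. The concentration for 50% growth inhibition is given as GI50. TGI denotes the concentration required for complete inhibition of growth.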

With `COc1cnc2c(c1)C(=O)c1c-2n(CCCN2CCN(C)CC2)c(=O)c2cc(Cl)ccc12`, in experiment [1], the GI50 is 1.53 µM and the TGI was 3.14 µM. Further, in experiment [2], the GI50 is 0.979 µM and the TGI was determined as 24.5 µM.

Regarding `CCCC(=O)NNc1[nH]c(-c2ccc(OC)cc2)cc1C(=O)OCC`, in experiment [1], the GI50 is 15.6 µM and the TGI worked out at 31.6 µM. In experiment [2], the GI50 was 19.2 µM and the TGI turned out to be 47.4 µM.

Turning to `Cc1ccc(S(=O)(=O)N/N=C(\C(=O)Nc2cccc([N+](=O)[O-])c2)c2nc3ccc([N+](=O)[O-])cc3[nH]c2=O)cc1`, the TGI in experiment [3], in experiment [4] and in experiment [5] was above 100 µM throughout.

For the compound `COc1cccc2c1c1nc3cc(C)c(C)cc3nc1n2CCN(C)C`, the figures for the GI50 in experiment [1] and in experiment [2] were 1.83 µM and 1.22 µM, respectively. Moreover, the TGI in experiment [1] came out at 4.14 µM; in experiment [2], 13.3 µM.

As to `CC(C)=CCC/C(C)=C/CC/C(=C/COP(=O)(OCc1ccc([N+](=O)[O-])o1)N(C)CCCCCl)C(C)(C)C` (centres undefined), in experiment [1], the GI50 is 10.1 µM and the TGI was 30.8 µM. In addition, in experiment [2], the GI50 was 16.3 µM and the concentration for total growth inhibition (TGI) was determined as 38.5 µM.

As to `COC1CC2CCC(C)[C@](O)(O2)C(=O)C(=O)N2CCCCC2C(=O)OC(C(C)CC2CCC(O)C(OC)C2)CC(=O)C(C)C=C(C)C(OC(=O)CN(C)C)C(OC)C(=O)C(C)CC(C)/C=C/C=C/C=C\1C` (some centres undefined), the TGI in experiment [1] came to 19.2 µM. In other words, the double-digit micromolar range.

For `COc1ccc(F)cc1C(=O)c1cnc(NC2CCN(S(C)(=O)=O)CC2)nc1N`, in experiment [1], the GI50 was 2.39 µM and the TGI is above 25 µM. Besides, in experiment [2], the GI50 is 6.26 µM and the TGI is above 25 µM.

As for `CO[C@H](C(=O)N[C@@H](CCCCNC(=O)OCc1ccccc1)C(=O)OC(C)(C)C)[C@@H]1Cc2cc3cc(OC4CC(OC5CC(O)C(O)C(C)O5)C(O)C(C)O4)c(C)c(O)c3c(O)c2C(=O)[C@H]1OC1CC(OC2CC(OC3CC(C)(O)C(O)C(C)O3)C(O)C(C)O2)C(O)C(C)O1` (some centres undefined), in experiment [1], the GI50 is 0.805 µM and the TGI came to 2.28 µM. For the same compound, the total growth inhibition concentration (TGI) in experiment [2] was above 10 µM.

For the compound `CO[C@H]1CC[C@@]2(C)C(=CC[C@H]3[C@@H]4C[C@H](O)C[C@@]4(C)CC[C@@H]32)C1`, in experiment [1], the GI50 was 1.26 µM and the TGI was 6.89 µM. Besides, in experiment [2], the GI50 is 4.17 µM and the TGI is 39.9 µM.

For the compound `COc1cc(C(=O)n2nc(N3CCN(C)CC3)c3cc(N)ccc32)cc(OC)c1OC`, in experiment [1], the GI50 is 1.91 µM and the TGI is 5.4 µM. Further, in experiment [2], the GI50 is 4.2 µM and the TGI is above 100 µM.

Take `COC(=O)C#Cc1ccc([N+](=O)[O-])cc1`: the values for the concentration for total growth inhibition (TGI) in experiment [1], in experiment [6] and in experiment [2] were 5.57 µM, 8.27 µM and 21.8 µM, respectively.

As for `CC(=O)OCC1OC(S[As](C)C)C(OC(C)=O)C1OC(C)=O` (centres undefined), the GI50 in experiment [1] was 0.0672 µM; in experiment [2], 0.259 µM. The TGI was 0.301 µM in experiment [1] and 2.48 µM in experiment [2].

Turning to `CC/C(=C(\CC)c1ccc(OCCN(CC)CC)cc1)c1ccc(OCCN(CC)CC)cc1`, in experiment [1], the GI50 is 1.86 µM and the TGI turned out to be 7.28 µM. Besides, in experiment [2], the GI50 was 4.89 µM and the concentration for total growth inhibition (TGI) was 17.9 µM.

Consider `Cc1ccc(C(=O)NC2CCCCC2)cc1-c1ccc(C(=O)NCC2CC2)cc1`, for which the GI50 in experiment [1] is above 25 µM; in experiment [2], 24.6 µM. Further, the total growth inhibition concentration (TGI) in experiment [1] and in experiment [2] was above 25 µM in each case.

Take `Cc1cc(C)nc(SC2=C(Nc3cccc(Cl)c3)C(=O)N(Cc3ccccc3)C2=O)n1`: in experiment [1], the GI50 is above 170 µM and the total growth inhibition concentration (TGI) is above 170 µM. Further, in experiment [2], the GI50 was above 170 µM and the TGI was above 170 µM.

Take `C=C[C@]1(C)C=C2C(=O)[C@@]3(O)OC(=O)[C@@]4(CCCC(C)(C)[C@H]34)[C@@]2(O)CC1`: in experiment [1], the GI50 is 1.76 µM and the TGI stood at 4.42 µM. Besides, in experiment [2], the GI50 was 2.89 µM and the TGI is above 100 µM.

As to `CCOC(=O)c1c(Cl)c2c(n1Cc1cc(OC)cc(OC)c1)-c1oncc1CCC2`, in experiment [2], the GI50 is 0.227 µM and the TGI is above 61.6 µM.

Regarding `NC(=O)Oc1cc(OC(N)=O)cc(N(CCCl)CCCl)c1`, in experiment [1], the GI50 is 11.4 µM and the TGI came to 28.9 µM. In addition, in experiment [2], the GI50 was 5.45 µM and the TGI was above 100 µM.

Regarding `ON(CCc1ccccn1)Cc1ccccc1`, the TGI in experiment [1], in experiment [6] and in experiment [2] was above 100 µM each time.

On to `CN1CCN(Cc2ccc(Nc3ncc(Cl)c(Nc4ccccc4S(=O)(=O)N(C)C)n3)cc2)CC1`, for which, in experiment [1], the GI50 is 0.0274 µM and the TGI came to 0.429 µM. Further, in experiment [2], the GI50 was 0.0747 µM and the total growth inhibition concentration (TGI) is 1.24 µM.

As to `O=C(/C=C\Sc1nccc(C(F)(F)F)n1)c1ccc(Br)cc1`, the GI50 in experiment [1] was 26.2 µM; in experiment [2], 20.2 µM. Also, the TGI stood at 78 µM in experiment [1] and 52.7 µM in experiment [2].

With `O=C(C=Nc1ccccc1C(=O)[O-])c1cccs1.O=C(C=Nc1ccccc1C(=O)[O-])c1cccs1.[Cu+2]`, the TGI in experiment [3] is above 10 µM; in experiment [7], above 100 µM.

As to `C/C(=C\c1ccn(-c2ccc(N)cc2)n1)[C@@H]1C[C@@H]2O[C@]2(C)CCC[C@H](C)[C@H](O)[C@@H](C)C(=O)C(C)(C)[C@@H](O)CC(=O)O1`, the GI50 in experiment [2] is 0.106 µM.

With `Cc1ccc(NC(=O)c2ccnc(N3CCCC3)c2)cc1-c1ccc(C(=O)NCC2CC2)cc1`, in experiment [1], the GI50 is above 25 µM and the TGI is above 25 µM. For the same compound, in experiment [2], the GI50 is above 25 µM and the TGI was above 25 µM.

As for `O=C1/C(=C/c2ccc(Cl)cc2)CN(C(=O)C(Cl)Cl)C/C1=C\c1ccc(Cl)cc1`, in experiment [1], the GI50 was 0.194 µM and the TGI was 0.396 µM. Also, in experiment [2], the GI50 was 0.358 µM and the TGI is above 32.9 µM.

As to `Cc1ccc2sc3c(NCCCNCCO)nc4ccccc4c3c(=O)c2c1`, the GI50 in experiment [1] is 1.74 µM; in experiment [2] it was 1.78 µM. The TGI was 3.27 µM in experiment [1] and 3.51 µM in experiment [2].

For `CCOC(=O)/C=C1\Nc2ccccc2-n2nnnc21`, the total growth inhibition concentration (TGI) in experiment [3], in experiment [7], in experiment [4] and in experiment [5] was above 100 µM in each case.
